In article PMC5573760 (Cancer Chemotherapy and Pharmacology, 2017):

Experiments:
[1] = Mass balance: excretion of radioactivity, copanlisib and metabolites in urine and feces; type: in vivo, human; conditions: 6 subjects; for Amount excreted in feces as this component, arithmetic mean (range) / Amount excreted in urine as this component, arithmetic mean (range): HPLC with off-line radioactivity detection; for Amount of dose recovered as this component in urine and feces combined: urine plus feces
Description: After pooling and homogenization of urine and feces samples per time interval, aliquots were stored at −20 °C for total radioactivity determination and at −70°C for metabolic profiling (including blood/plasma samples). For determination of total radioactivity, samples were analyzed with a Perkin Elmer Tri-Carb™ 3100 TR liquid scintillation analyzer (Perkin Elmer, Waltham, MA, USA) with quenching correction. For metabolite profiling, plasma samples were treated with a mixture of acetonitrile (ACN) +0.2% acetic acid, after shaking and centrifugation, the supernatant was concentrated. Urine and feces samples were treated with solid-phase extraction (Waters HLB 30 mg, 1 mL, Waters, Milford, MA, USA) and liquid–liquid extraction (ACN + 0.2% trifluoroacetic acid/water, 80:20 volume/volume), respectively. Subsequently samples from plasma, urine and feces were analyzed by HPLC-LSC on Synergi Polar 4 µm 150 × 2 mm (Phenomenex, Aschaffenburg, Germany) with off-line radioactivity detection by Microbeta^2™ Plus liquid scintillation counter with Ultima Flo™ AP scintillation fluid (Packard Instrument BV, Groningen, The Netherlands).
Metabolite patterns in plasma, urine and feces were studied by the HPLC method with off-line radioactivity detection described above.
A similar approach has been described earlier.

clinical = conditions: for Tmax: male, human, in vivo, iv, t max
Description: All subjects gave written informed consent; the study was conducted at PRA Health Sciences (Zuidlaren, The Netherlands) in accordance with the Declaration of Helsinki and was approved by an accredited institutional ethics committee (Medisch Ethische Toetsings Commissie, Assen, The Netherlands).
Subjects remained fasting until 2-h after the end of the infusion. Volunteers stayed in-house until 14 days after the application and subsequently urine and feces were collected for 24-h on Day 16, 20, 27 and 34 if necessary, cf. below.
Urine was collected pre-dose, at 0–12-h and 12–24 h after the start of the infusion and thereafter over 24-h intervals on Day 2 to Day 14 as well as on Day 16, 20, 27 and 34 (±1 day). Cumulative 24-h fecal samples were collected from Day 1 (day of infusion) to Day 14 and as well as on Day 16, 20, 27 and 34 (±1 day). […] The excreted radioactivity between ambulant visits during the prolongation phase of the clinical study was calculated using interpolation to get a more realistic total excretion value of all subjects (see "Pharmacokinetic analysis").
All samples were frozen at −70 °C and analyzed within 60 days of sample collection.
For blood/plasma ratio determination, total radioactivity in urine and feces well as data from HPLC analysis data from radioactivity measurement by liquid scintillation counting (LSC) were considered. The amount of radioactivity recovered in the excreta (A E) was related to the administered radioactive dose to establish the radioactive balance. Arithmetic means and coefficients of variation (CV) were calculated for these percentages. […] Cumulative excretion was calculated as sum of the collection intervals. The elimination of the total radioactivity in urine and feces for time-points beyond day 14 was performed by log-linear extrapolation between analyzed time-points. Amounts of radioactivity excreted in urine and feces between two ambulant visits were calculated per interpolated day by linear interpolation of log-transformed excretion data separately per matrix (lnA E(interpolated day) = Δdays × [lnA E(Visit i + 1) − lnA E(Visit i)]/[day (Visit i + 1) − day (Visit i)] + lnA E(Visit i), with A E given as amount of radioactivity excreted in matrix per day and Δdays being the difference between the calculated day and the last available visit with A E > 0). In case no feces sample was provided on an ambulant visit, this visit was neglected for interpolation. A similar approach has been described earlier. The concentration/amount for each component of each sample/time-point was calculated by multiplying the total radioactivity concentration/amount of each sample with %-area of each component obtained after off-line HPLC separation. The amount of radioactivity in urine and feces at late time-points where no component was detected was distributed in the same percentage to the component (s) present at the time-point before.
Compartment-free analysis was performed employing WinNonlin software (version 5.3, Pharsight Certara, Princton, NJ, USA).
Pharmacokinetic parameters were evaluated by descriptive data analysis without formal hypothesis testing by calculating either medians (t max, t last) or geometric means and %CV (remaining parameters). Excretion data (urine, feces, total) were evaluated by arithmetic means.

clinical target (PI3K) = system: clinical target (PI3K); design: method as in Bayer AG, data on file; conditions: ref Bayer AG, data on file; cited from earlier work

Row | Structure (SMILES) | Amount excreted in feces as this component, arithmetic mean (range) [1] | Amount excreted in urine as this component, arithmetic mean (range) [1] | Amount of dose recovered as this component in urine and feces combined [1] | Tmax (clinical; median) [h] | Tmax (clinical; range) [h] | Range of AUC (0–t last) (LC–MS) (clinical; plasma, t last defined by the time-point with detectable radioactivity, range of 6 subjects) | Affinity to the clinical target relative to parent compound (clinical target (PI3K))
1 | COc1c(O)ccc2c1N=C(NC(=O)c1cnc(N)nc1)N1CCN=C21 [M4] | 5.61 (1.74–9.53) % of dose | 0.15 (0.04–0.32) % of dose |  |  |  |  | 
2 | COc1c(OCCCN2CCOCC2=O)ccc2c1N=C(NC(=O)c1cnc(N)nc1)N1CCN=C21 [M1] | 6.39 (4.34–8.66) % of dose | 4.47 (2.53–6.79) % of dose | 11.1 % of dose | 6 | 3 to 10 | 4.36–37.8 ng-Eq·h/mL | same order of magnitude as found for the parent compound
3 | COc1c(OCCC(=O)O)ccc2c1N=C(NC(=O)c1cnc(N)nc1)N1CCN=C21 [M2] | 11.8 (9.91–13.0) % of dose | 0.34 (0.10–0.52) % of dose |  |  |  |  | 

The next lines start with results.

Row | Amount excreted in feces as this component, arithmetic mean (range) [1] | Amount excreted in urine as this component, arithmetic mean (range) [1] | Amount of dose recovered as this component in urine and feces combined [1] | Structure (SMILES) | Tmax (clinical; median) [h] | Tmax (clinical; range) [h] | Range of AUC (0–t last) (LC–MS) (clinical; plasma, t last defined by the time-point with detectable radioactivity, range of 6 subjects) | Affinity to the clinical target relative to parent compound (clinical target (PI3K))
4 |  |  | < 2 % of dose | COc1c(OCCCO)ccc2c1N=C(NC(=O)c1cnc(N)nc1)N1CCN=C21 [M15] |  |  |  | 
5 | 7.32 (5.61–11.6) % of dose | 0.32 (0–0.62) % of dose |  | COc1c(OCCCNCCO)ccc2c1N=C(NC(=O)c1cnc(N)nc1)N1CCN=C21 [M3] |  |  |  | 
6 |  |  | < 2 % of dose | COc1c(OCCCN(C=O)CCO)ccc2c1N=C(NC(=O)c1cnc(N)nc1)N1CCN=C21 [M21] |  |  |  | 
